The record followed here is patent publication US20240208992A1, “MACROCYCLES AS CFTR MODULATORS” (Idorsia Pharmaceuticals Ltd, priority 2021, published 2024).

For orientation: EC50 means the concentration that produces a half-maximal response. A word on the Emax: it is the greatest response seen or fitted, relative to the assay's reference.

The target of this test is human F508del-CFTR (Homo sapiens, UniProt P13569, DEL508-508). As to the kind of experiment: F508del-CFTR cell surface expression (corrector activity), DiscoveRx ß-galactosidase complementation chemiluminescence assay in recombinant U2OS cell line.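 For all read-outs here: U2OS cells co-expressing ProLink-tagged F508del-CFTR and a membrane-anchored enzyme acceptor, where more surface CFTR restores β-galactosidase activity measured by chemiluminescence.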 The following applies: U2OS cell line, 16h compound incubation; for EC50: EC50, F508del-CFTR cell surface expression, geomean values; for Emax: U2OS, in relation to the Emax of the corrector lumacaftor (=100%), arithmetic mean values.
Chain of human F508del-CFTR (P13569 with tags, fused parts or gaps DEL508-508): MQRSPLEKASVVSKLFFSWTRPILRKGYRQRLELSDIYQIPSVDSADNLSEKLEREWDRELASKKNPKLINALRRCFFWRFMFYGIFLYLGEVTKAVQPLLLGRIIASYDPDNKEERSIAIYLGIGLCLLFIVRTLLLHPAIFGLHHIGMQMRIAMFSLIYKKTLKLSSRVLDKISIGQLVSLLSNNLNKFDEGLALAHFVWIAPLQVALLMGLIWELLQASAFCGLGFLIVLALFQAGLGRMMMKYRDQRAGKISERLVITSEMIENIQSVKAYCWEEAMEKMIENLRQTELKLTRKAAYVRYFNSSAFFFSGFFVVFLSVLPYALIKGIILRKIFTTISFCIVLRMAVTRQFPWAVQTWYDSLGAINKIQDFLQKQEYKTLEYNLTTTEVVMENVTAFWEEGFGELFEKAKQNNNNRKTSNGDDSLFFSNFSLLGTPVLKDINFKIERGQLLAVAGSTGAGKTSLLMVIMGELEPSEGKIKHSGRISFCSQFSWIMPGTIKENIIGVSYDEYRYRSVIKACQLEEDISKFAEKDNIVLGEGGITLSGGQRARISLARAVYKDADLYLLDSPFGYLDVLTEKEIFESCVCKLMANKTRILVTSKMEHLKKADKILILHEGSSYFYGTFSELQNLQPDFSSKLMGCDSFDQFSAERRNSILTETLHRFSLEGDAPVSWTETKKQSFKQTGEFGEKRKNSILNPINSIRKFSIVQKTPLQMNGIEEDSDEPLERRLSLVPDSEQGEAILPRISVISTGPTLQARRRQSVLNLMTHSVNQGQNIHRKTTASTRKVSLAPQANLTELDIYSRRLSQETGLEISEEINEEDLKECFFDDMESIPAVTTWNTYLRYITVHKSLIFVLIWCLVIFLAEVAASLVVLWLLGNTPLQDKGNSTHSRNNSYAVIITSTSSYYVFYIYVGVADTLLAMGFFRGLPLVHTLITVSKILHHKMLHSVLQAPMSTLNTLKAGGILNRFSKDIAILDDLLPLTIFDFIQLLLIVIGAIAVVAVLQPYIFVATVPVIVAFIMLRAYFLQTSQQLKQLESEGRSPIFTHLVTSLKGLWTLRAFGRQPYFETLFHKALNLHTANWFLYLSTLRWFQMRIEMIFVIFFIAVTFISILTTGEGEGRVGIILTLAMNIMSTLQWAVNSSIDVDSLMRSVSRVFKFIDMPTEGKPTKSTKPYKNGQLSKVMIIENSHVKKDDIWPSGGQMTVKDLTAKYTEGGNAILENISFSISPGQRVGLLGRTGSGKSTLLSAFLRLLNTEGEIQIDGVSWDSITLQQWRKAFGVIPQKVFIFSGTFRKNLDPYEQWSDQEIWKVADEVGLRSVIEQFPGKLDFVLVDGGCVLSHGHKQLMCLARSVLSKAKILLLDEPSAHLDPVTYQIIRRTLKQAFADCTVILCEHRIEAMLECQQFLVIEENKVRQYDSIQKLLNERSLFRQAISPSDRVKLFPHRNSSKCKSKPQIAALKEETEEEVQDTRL

Take `CC(C)C[C@H]1C(=O)N2CCOC[C@@H]2C(=O)N[C@H](Cc2ccccc2)COc2cnc3ccccc3c2C(=O)N[C@H](C(=O)NCCc2cccc(F)c2)CC(=O)N1C` [Example 66, (9S,13S,19aR,22R)-22-benzyl-N-(3-fluorophenethyl)-13-isobutyl-12-methyl-7,11,14,20-tetraoxo-7,8,9,10,11,12,13,14,16,17,19,19a,20,21,22,23-hexadecahydro-[1,4]oxazino[3′,4′:6,7][1]oxa[4,7,10,14]tetraazacycloheptadecino[17,16-c]quinoline-9-carboxamide]: the EC50 came out at 587 nM and the Emax amounted to 169%.
`CC(C)C[C@H]1C(=O)N2CCOC[C@@H]2C(=O)N[C@H](Cc2ccccc2)COc2cnc3ccccc3c2C(=O)N[C@H](C(=O)NCCc2ccc(F)cc2)CC(=O)N1C` [Example 67, (9S,13S,19aR,22R)-22-benzyl-N-(4-fluorophenethyl)-13-isobutyl-12-methyl-7,11,14,20-tetraoxo-7,8,9,10,11,12,13,14,16,17,19,19a,20,21,22,23-hexadecahydro-[1,4]oxazino[3′,4′:6,7][1]oxa[4,7,10,14]tetraazacycloheptadecino[17,16-c]quinoline-9-carboxamide]: the EC50 was found to be 615 nM and the Emax came out at 236%.
For `CC(C)C[C@H]1C(=O)N2CCOC[C@@H]2C(=O)N[C@H](Cc2ccccc2)COc2cnc3ccccc3c2C(=O)N[C@H](C(=O)NCCc2c(F)cccc2F)CC(=O)N1C` [Example 68, (9S,13S,19aR,22R)-22-benzyl-N-(2,6-difluorophenethyl)-13-isobutyl-12-methyl-7,11,14,20-tetraoxo-7,8,9,10,11,12,13,14,16,17,19,19a,20,21,22,23-hexadecahydro-[1,4]oxazino[3′,4′:6,7][1]oxa[4,7,10,14]tetraazacycloheptadecino[17,16-c]quinoline-9-carboxamide] the same measures were 448 nM and 331%.
Take `CC(C)C[C@H]1C(=O)N2CCOC[C@@H]2C(=O)N[C@H](Cc2ccccc2)COc2ccc3ccccc3c2C(=O)N[C@H](C(=O)NCCc2nc(-c3ccccc3)no2)CC(=O)N1C` [Example 69, (9S,13S,19aR,22R)-22-benzyl-13-isobutyl-12-methyl-7,11,14,20-tetraoxo-N-(2-(3-phenyl-1,2,4-oxadiazol-5-yl)ethyl)-7,8,9,10,11,12,13,14,16,17,19,19a,20,21,22,23-hexadecahydro-[1,4]oxazino[3′,4′:6,7][1]oxa[4,7,10,14]tetraazacycloheptadecino[17,16-c]quinoline-9-carboxamide]: the EC50 stood at 454 nM and the Emax came out at 262%.
The like results for `Cc1onc(CCNC(=O)[C@@H]2CC(=O)N(C)[C@@H](CC(C)C)C(=O)N3CCOC[C@@H]3C(=O)N[C@H](Cc3ccccc3)COc3ccc4ccccc4c3C(=O)N2)c1C` [Example 70, (4aR,7R,18S,22S)-7-benzyl-N-(2-(4,5-dimethylisoxazol-3-yl)ethyl)-22-isobutyl-21-methyl-5,16,20,23-tetraoxo-1,2,4,4a,5,6,7,8,16,17,18,19,20,21,22,23-hexadecahydronaphtho[1,2-p][1,4]oxazino[3,4-f][1]oxa[4,7,10,14]tetraazacycloheptadecine-18-carboxamide] were, in that order, 754 nM and 202%.
On to `COc1cc(CCNC(=O)[C@@H]2CC(=O)N(C)[C@@H](CC(C)C)C(=O)N3CCCC[C@@H]3C(=O)N[C@H](Cc3ccccc3)COc3cnc4ccccc4c3C(=O)N2)cc(OC)c1` [Example 71, (9S,13S,19aR,22R)-22-benzyl-N-(3,5-dimethoxyphenethyl)-13-isobutyl-12-methyl-7,11,14,20-tetraoxo-7,8,9,10,11,12,13,14,17,18,19,19a,20,21,22,23-hexadecahydro-16H-pyrido[2′,11:6,7][1]oxa[4,7,10,14]tetraazacycloheptadecino[17,16-c]quinoline-9-carboxamide], for which the EC50 is 338 nM and the Emax came out at 326%.
Regarding `CC(C)C[C@H]1C(=O)N2CCCC[C@@H]2C(=O)N[C@H](Cc2ccccc2)COc2cnc3ccccc3c2C(=O)N[C@H](C(=O)NCCc2c(F)cccc2F)CC(=O)N1C` [Example 72, (9S,13S,19aR,22R)-22-benzyl-N-(2,6-difluorophenethyl)-13-isobutyl-12-methyl-7,11,14,20-tetraoxo-7,8,9,10,11,12,13,14,17,18,19,19a,20,21,22,23-hexadecahydro-16H-pyrido[2′,1′:6,7][1]oxa[4,7,10,14]tetraazacycloheptadecino[17,16-c]quinoline-9-carboxamide], the EC50 came to 142 nM and the Emax worked out at 335%.
The like results for `CC(C)C[C@H]1C(=O)N2CCCC[C@@H]2C(=O)N[C@H](Cc2ccccc2)COc2cnc3ccccc3c2C(=O)N[C@H](C(=O)NCCc2c(F)cc(F)cc2F)CC(=O)N1C` [Example 73, (9S,13S,19aR,22R)-22-benzyl-13-isobutyl-12-methyl-7,11,14,20-tetraoxo-N-(2,4,6-trifluorophenethyl)-7,8,9,10,11,12,13,14,17,18,19,19a,20,21,22,23-hexadecahydro-16H-pyrido[2′,1′:6,7][1]oxa[4,7,10,14]tetraazacycloheptadecino[17,16-c]quinoline-9-carboxamide] were, in that order, 214 nM and 253%.
For `COc1cc(F)c(CCNC(=O)[C@@H]2CC(=O)N(C)[C@@H](CC(C)C)C(=O)N3CCCC[C@@H]3C(=O)N[C@H](Cc3ccccc3)COc3cnc4ccccc4c3C(=O)N2)c(F)c1` [Example 74, (9S,13S,19aR,22R)-22-benzyl-N-(2,6-difluoro-4-methoxyphenethyl)-13-isobutyl-12-methyl-7,11,14,20-tetraoxo-7,8,9,10,11,12,13,14,17,18,19,19a,20,21,22,23-hexadecahydro-16H-pyrido[2′,1′:6,7][1]oxa[4,7,10,14]tetraazacycloheptadecino[17,16-c]quinoline-9-carboxamide] the same measures were 128 nM and 271%.
For `CC(C)C[C@H]1C(=O)N2CCCC[C@@H]2C(=O)N[C@H](Cc2ccccc2)COc2cnc3ccccc3c2C(=O)N[C@H](C(=O)NCCc2ccc(F)c(F)c2)CC(=O)N1C` [Example 75, (9S,13S,19aR,22R)-22-benzyl-N-(3,4-difluorophenethyl)-13-isobutyl-12-methyl-7,11,14,20-tetraoxo-7,8,9,10,11,12,13,14,17,18,19,19a,20,21,22,23-hexadecahydro-16H-pyrido[2′,1′:6,7][1]oxa[4,7,10,14]tetraazacycloheptadecino[17,16-c]quinoline-9-carboxamide] the same measures were 255 nM and 191%.
Turning to `CC(C)C[C@H]1C(=O)N2CCCC[C@@H]2C(=O)N[C@H](Cc2ccccc2)COc2cnc3ccccc3c2C(=O)N[C@H](C(=O)NCCc2nc(-c3ccccc3)no2)CC(=O)N1C` [Example 76, (9S,13S,19aR,22R)-22-benzyl-13-isobutyl-12-methyl-7,11,14,20-tetraoxo-N-(2-(3-phenyl-1,2,4-oxadiazol-5-yl)ethyl)-7,8,9,10,11,12,13,14,17,18,19,19a,20,21,22,23-hexadecahydro-16H-pyrido[2′,1′:6,7][1]oxa[4,7,10,14]tetraazacycloheptadecino[17,16-c]quinoline-9-carboxamide], the EC50 came out at 196 nM and the Emax stood at 283%.
In the case of `CC(C)C[C@H]1C(=O)N2CCCC[C@@H]2C(=O)N[C@H](Cc2ccccc2)COc2cnc3ccccc3c2C(=O)N[C@H](C(=O)NCCc2ccccc2)CC(=O)N1C` [Example 77, (9S,13S,19aR,22R)-22-benzyl-13-isobutyl-12-methyl-7,11,14,20-tetraoxo-N-phenethyl-7,8,9,10,11,12,13,14,17,18,19,19a,20,21,22,23-hexadecahydro-16H-pyrido[2′,1′:6,7][1]oxa[4,7,10,14]tetraazacycloheptadecino[17,16-c]quinoline-9-carboxamide], the concentration for a half-maximal effect (EC50) was found to be 231 nM and the Emax came to 237%.
Consider `Cc1nc(CCNC(=O)[C@@H]2CC(=O)N(C)[C@@H](CC(C)C)C(=O)N3CCCC[C@@H]3C(=O)N[C@H](Cc3ccccc3)COc3cnc4ccccc4c3C(=O)N2)no1` [Example 78, (9S,13S,19aR,22R)-22-benzyl-13-isobutyl-12-methyl-N-(2-(5-methyl-1,2,4-oxadiazol-3-yl)ethyl)-7,11,14,20-tetraoxo-7,8,9,10,11,12,13,14,17,18,19,19a,20,21,22,23-hexadecahydro-16H-pyrido[2′,1′:6,7][1]oxa[4,7,10,14]tetraazacycloheptadecino[17,16-c]quinoline-9-carboxamide], for which the EC50 came to 544 nM and the Emax was 277%.
For `CCc1nc(CCNC(=O)[C@@H]2CC(=O)N(C)[C@@H](CC(C)C)C(=O)N3CCCC[C@@H]3C(=O)N[C@H](Cc3ccccc3)COc3cnc4ccccc4c3C(=O)N2)no1` [Example 79, (9S,13S,19aR,22R)-22-benzyl-N-(2-(5-ethyl-1,2,4-oxadiazol-3-yl)ethyl)-13-isobutyl-12-methyl-7,11,14,20-tetraoxo-7,8,9,10,11,12,13,14,17,18,19,19a,20,21,22,23-hexadecahydro-16H-pyrido[2′,1′:6,7][1]oxa[4,7,10,14]tetraazacycloheptadecino[17,16-c]quinoline-9-carboxamide] the same measures were 327 nM and 296%.
The like results for `CC(C)C[C@H]1C(=O)N2CCCC[C@@H]2C(=O)N[C@H](Cc2ccccc2)COc2cnc3ccccc3c2C(=O)N[C@H](C(=O)NCCc2noc(C3CC3)n2)CC(=O)N1C` [Example 80, (9S,13S,19aR,22R)-22-benzyl-N-(2-(5-cyclopropyl-1,2,4-oxadiazol-3-yl)ethyl)-13-isobutyl-12-methyl-7,11,14,20-tetraoxo-7,8,9,10,11,12,13,14,17,18,19,19a,20,21,22,23-hexadecahydro-16H-pyrido[2′,1′:6,7][1]oxa[4,7,10,14]tetraazacycloheptadecino[17,16-c]quinoline-9-carboxamide] were, in that order, 170 nM and 308%.
